Test results reported in patent publication US10808017B2, “Ubiquitin variants and uses therof as 53BP1 inhibitors” (The Governing Council of the University of Toronto, priority 2016, dated 2020).
“Also recorded” adds a separate entry of the source.

Key:
[1] = test system: BRCA1 focus formation in U2OS cells; assay: Ionizing radiation focus formation, BRCA1 (immunofluorescence); format: cell-based; conditions: 10 Gy
Protocol: FIG. 3. The i53 protein inhibits 53BP1. FIG. 3A-B, U2OS cells were transfected with vectors expressing i53, its 53BP1-binding deficient mutant (DM) or an empty vector (EV) control. Cells were then X-irradiated with a 10 Gy dose and processed for immunofluorescence with the indicated antibodies 1 h post-irradiation (IR). DAPI staining (not shown) was used to delineate the outline (dashed lines) of the cell nuclei. The region in the magnified inset is indicated with a square. Quantitation of the experiment is shown in panel (a) and data is indicated as the mean±s.e.m (N=3), whereas in (b) representative micrographs are shown. Arrowheads indicate Flag-positive cells. FIG. 3C, Parental or 53BP1ΔU2OS cells transfected with vectors expressing i53, the DM mutant or an empty vector (EV) control were irradiated (10 Gy) 1 h before being processed for immunofluorescence. Cell cycle stage was assessed by Cyclin A staining. The data is presented as the mean±s.e.m.; N=3. FIG. 3D, Immunoprecipitation (IP) of Flag-tagged proteins from extracts prepared from 293T cells transfected with vectors expressing Flag-i53 or the i53-DM mutant. Proteins were separated by SDS-PAGE and immunoblotted (IB) for Flag and 53BP1. […]

[2] = test system: gene targeting at the LMNA locus in U2OS cells; assay: LMNA mClover gene targeting assay (CRISPR/Cas9); format: cell-based
Protocol: FIG. 4. Activation of HR by i53. FIG. 4A, Schematic of the DR-GFP assay. FIG. 4B. U2OS DR-GFP cells were transfected with the vectors expressing i53, the DM mutant or an empty vector control (EV) along with an I-Scel expression vector. The percentage of GFP-positive cells was determined 48 h post-transfection for each condition and was normalized to the empty vector condition (mean±s.d., N=4). FIG. 4C, U2OS DR-GFP were first transfected with siRNAs targeting the 53BP1 or BRCA1 mRNAs along with a non-targeting siRNA (CTRL). 24 h post-transfection, cells were transfected with the I-SceI expression vector and the percentage of GFP-positive cells was determined 48 h post-siRNA transfection for each condition. The values were normalized to the empty vector condition and presented as the mean±s.e.m; N=4. FIG. 4D, Schematic of the gene targeting assay. FIG. 4E, Gene targeting efficiency at the LMNA locus in parental or 53BP1Δ U2OS cells following transfection with vectors expressing Flag-tagged i53 or its DM mutant or an empty vector control (EV). The DNA-PK inhibitor NU7441 was also added where indicated. 24 h post-transfection, cells were analysed for mClover fluorescence. Individual experiments are presented with the error bar representing the s.d., (N=3). FIG. 4F, Gene targeting at the LMNA locus in G 1-arrested parental (WT) or 53BP1Δ U2OS cells transfected with vectors expressing Flag-tagged i53 or its DM mutant or an empty vector control (EV). The DNA-PK inhibitor NU7441 was also added in the indicated conditions. 24 h post-transfection, cells were analysed for mClover fluorescence. Individual experiments are present with the error bar representing the s.d., (N=3).
The Lamin A (LMNA) assay to measure the frequency of introduction of the coding sequence for mClover at the 5′ end of LMNA using the CRISPR/Cas9 was performed as previously described4. Parental or 53BP1Δ U2OS cell lines were transfected with the indicated plasmids using Lipofectamine RNAiMAX (Invitrogen). 24 h later, the cells were electroporated with 2.5 μg of sgRNA plasmids and 2.5 μg of donor template using a Nucleofector (Lonza; protocol X-001). Parental or 53BP1Δ U2OS cells stably expressing CtIP-T847E mutant were transfected with an siRNA against KEAP1 and the indicated plasmids and processed as previously described.

WDR96 = target: T1, WDR96 (Homo sapiens, UniProt Q8NDM7); assay: Flag IP-MS of i53/i53-DM baits: prey WDR96; format: binding; conditions: 293T Flp-In/T-Rex extracts, LC-MS/MS, one column per replicate IP
T1 construct: Following immunoprecipitation of Flag-tagged i53 and i-53-DM from HEK293 Flp-In/T-REx cells, peptides were identified using LC-MS/MS; endogenous in cells; host or cells: HEK293 Flp-In/T-REx cells
Protocol: (§1) Following immunoprecipitation of Flag-tagged i53 and i-53-DM from HEK293 Flp-In/T-REx cells, peptides were identified using LC-MS/MS. Proteins were digested in solution with trypsin (Sigma, T7575-1KT) and dried to completeness. For LC-MS/MS analysis, peptides were reconstituted in 5% formic acid and loaded onto a 12-15 cm fused silica column with pulled tip packed in-house with 3.5 μm Zorbax C18 (Agilent Technologies, Calif., USA).
(§2) i53 and i53-DM precipitates were analyzed using an LTQ (Thermo Scientific) coupled to an Agilent 1100 Series HPLC (Agilent Technologies). Peptides were eluted from the column using a 90 min period cycle with a linear gradient from 0% to 40% ACN in 0.1% formic acid. Tandem MS spectra were acquired in a data-dependent mode for the top 5 (LTQ) most abundant ions using collision-induced dissociation. Acquired spectra were searched against the human Refseq_V53 database using Mascot (Matrix Science).
(§3) 293T Flp-In/T-Rex cell lines were generated that expressed Flag-tagged i53 or i53-DM under the control of a tetracycline-inducible promoter as previously described. Nine IP-MS experiments were analyzed (3 biological replicate IPs each for control i53- and i53-DM expressing cell lines). The interacting proteins were identified by MASCOT to identify high-confidence interactors for i53. […]

RPS24 = target: T2, RPS24 (Homo sapiens, UniProt P62847); assay: Flag IP-MS of i53/i53-DM baits: prey RPS24; format: binding; conditions: 293T Flp-In/T-Rex extracts, LC-MS/MS, one column per replicate IP
T2 construct: endogenous in cells; host or cells: HEK293 Flp-In/T-REx
Protocol: as §1, §2, §3

DLEC1 = target: T3, DLEC1 (Homo sapiens, UniProt Q9Y238); assay: Flag IP-MS of i53/i53-DM baits: prey DLEC1; format: binding; conditions: 293T Flp-In/T-Rex extracts, LC-MS/MS, one column per replicate IP
T3 construct: endogenous in cells; host or cells: HEK293 Flp-In/T-REx cells
Protocol: as §1, §2, §3

T3 sequence (Q9Y238 whole entry): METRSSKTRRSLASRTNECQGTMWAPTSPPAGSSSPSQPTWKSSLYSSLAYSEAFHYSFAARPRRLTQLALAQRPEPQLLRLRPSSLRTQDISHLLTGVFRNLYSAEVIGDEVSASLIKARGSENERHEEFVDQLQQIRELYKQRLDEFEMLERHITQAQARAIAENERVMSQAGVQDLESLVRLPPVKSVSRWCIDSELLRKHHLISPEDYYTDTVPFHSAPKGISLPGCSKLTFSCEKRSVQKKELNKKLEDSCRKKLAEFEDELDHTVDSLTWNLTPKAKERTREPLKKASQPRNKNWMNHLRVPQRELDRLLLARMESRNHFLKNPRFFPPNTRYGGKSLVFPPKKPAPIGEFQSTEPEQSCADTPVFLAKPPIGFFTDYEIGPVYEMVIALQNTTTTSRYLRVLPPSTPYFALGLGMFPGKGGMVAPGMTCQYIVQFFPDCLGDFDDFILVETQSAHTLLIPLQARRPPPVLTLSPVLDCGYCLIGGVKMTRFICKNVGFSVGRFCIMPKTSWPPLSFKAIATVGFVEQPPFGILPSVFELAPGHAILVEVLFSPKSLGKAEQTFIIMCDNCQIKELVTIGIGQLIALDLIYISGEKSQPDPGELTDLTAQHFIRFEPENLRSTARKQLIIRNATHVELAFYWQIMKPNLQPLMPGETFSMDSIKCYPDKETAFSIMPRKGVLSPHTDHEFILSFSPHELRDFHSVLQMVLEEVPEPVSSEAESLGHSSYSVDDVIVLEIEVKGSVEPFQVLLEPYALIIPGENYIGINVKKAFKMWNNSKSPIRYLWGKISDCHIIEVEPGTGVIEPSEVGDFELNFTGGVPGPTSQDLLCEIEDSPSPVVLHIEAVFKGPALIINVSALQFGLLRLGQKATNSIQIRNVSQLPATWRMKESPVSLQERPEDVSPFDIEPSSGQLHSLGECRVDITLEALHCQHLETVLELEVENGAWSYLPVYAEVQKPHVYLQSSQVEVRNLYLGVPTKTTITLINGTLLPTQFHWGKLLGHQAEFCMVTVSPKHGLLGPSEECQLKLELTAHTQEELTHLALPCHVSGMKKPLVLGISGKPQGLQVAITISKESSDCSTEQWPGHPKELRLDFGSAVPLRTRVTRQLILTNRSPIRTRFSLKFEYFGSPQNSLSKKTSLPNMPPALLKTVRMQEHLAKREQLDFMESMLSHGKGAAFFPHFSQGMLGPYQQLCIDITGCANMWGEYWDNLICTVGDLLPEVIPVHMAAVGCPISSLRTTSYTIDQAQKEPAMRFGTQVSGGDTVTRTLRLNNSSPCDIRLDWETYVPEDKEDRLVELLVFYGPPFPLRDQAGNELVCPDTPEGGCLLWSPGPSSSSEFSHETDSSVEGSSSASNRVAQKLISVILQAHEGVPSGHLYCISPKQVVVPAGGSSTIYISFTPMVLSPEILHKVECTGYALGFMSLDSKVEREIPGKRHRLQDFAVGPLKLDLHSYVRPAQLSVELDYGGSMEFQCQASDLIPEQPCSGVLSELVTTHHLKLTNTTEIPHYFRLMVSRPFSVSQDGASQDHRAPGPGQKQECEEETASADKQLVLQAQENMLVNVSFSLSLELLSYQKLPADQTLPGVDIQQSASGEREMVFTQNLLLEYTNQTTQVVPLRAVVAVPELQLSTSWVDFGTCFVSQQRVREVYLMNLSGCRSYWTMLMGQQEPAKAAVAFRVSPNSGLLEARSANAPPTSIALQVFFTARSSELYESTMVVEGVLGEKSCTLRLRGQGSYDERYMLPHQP
T1 sequence (Q8NDM7 whole entry): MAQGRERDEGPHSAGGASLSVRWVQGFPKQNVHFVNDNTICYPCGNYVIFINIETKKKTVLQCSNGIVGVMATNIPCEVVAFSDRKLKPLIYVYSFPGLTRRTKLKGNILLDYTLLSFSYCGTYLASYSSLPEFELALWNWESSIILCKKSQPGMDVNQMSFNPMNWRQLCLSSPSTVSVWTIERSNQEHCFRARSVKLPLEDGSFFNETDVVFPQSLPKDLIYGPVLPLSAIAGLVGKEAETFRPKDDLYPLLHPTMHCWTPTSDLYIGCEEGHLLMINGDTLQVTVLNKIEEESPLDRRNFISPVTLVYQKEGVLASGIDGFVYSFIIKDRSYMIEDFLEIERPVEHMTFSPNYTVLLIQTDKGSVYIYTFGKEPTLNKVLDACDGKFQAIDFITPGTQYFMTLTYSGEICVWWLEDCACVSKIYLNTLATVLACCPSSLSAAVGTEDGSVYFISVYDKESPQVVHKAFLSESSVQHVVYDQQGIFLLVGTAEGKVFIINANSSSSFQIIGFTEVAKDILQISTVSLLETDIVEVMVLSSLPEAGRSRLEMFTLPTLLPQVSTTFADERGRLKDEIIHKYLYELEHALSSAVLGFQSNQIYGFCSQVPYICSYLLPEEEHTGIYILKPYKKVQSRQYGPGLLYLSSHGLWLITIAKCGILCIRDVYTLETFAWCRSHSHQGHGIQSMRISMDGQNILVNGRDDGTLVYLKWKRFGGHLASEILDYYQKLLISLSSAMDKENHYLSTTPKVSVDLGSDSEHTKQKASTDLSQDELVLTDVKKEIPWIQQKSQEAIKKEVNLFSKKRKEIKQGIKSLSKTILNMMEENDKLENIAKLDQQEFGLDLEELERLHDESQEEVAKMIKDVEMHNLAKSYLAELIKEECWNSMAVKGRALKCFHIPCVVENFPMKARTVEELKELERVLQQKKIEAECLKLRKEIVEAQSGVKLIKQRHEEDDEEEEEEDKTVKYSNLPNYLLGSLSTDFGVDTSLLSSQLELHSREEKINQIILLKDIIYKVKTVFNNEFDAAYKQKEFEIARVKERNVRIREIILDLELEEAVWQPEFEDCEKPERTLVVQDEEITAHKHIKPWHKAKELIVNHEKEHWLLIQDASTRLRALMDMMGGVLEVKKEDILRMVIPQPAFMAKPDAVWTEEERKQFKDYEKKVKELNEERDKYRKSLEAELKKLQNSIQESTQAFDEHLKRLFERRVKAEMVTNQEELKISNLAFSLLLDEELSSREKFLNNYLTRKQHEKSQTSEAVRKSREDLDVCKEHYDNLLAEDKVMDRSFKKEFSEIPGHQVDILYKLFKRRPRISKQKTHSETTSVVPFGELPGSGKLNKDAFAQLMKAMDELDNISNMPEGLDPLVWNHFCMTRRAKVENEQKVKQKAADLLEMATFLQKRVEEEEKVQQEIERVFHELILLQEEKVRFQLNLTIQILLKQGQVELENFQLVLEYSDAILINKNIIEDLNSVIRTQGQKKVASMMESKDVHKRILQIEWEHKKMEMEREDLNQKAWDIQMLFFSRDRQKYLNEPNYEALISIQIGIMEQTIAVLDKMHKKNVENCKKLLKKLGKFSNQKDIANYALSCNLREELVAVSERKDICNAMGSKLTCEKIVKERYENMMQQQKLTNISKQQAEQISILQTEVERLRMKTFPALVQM

Row | Total peptides, WDR96 (WDR96) | Total peptides, RPS24 (RPS24) | Total peptides, DLEC1 (DLEC1) | Substance | BRCA1 accumulation at DSB sites in G1 cells ([1]; U2OS cells, cell cycle stage by Cyclin A staining) | BRCA1 focus formation ([1]; transfected U2OS cells, 1 h post-irradiation) | Gene targeting at the LMNA locus in 53BP1Δ cells ([2]; 53BP1Δ U2OS cells) | Cas9-stimulated gene targeting at the LMNA locus in G1 ([2]; G1-arrested U2OS cells expressing CtIP-T847E, KEAP1 siRNA, compared with 53BP1 knockout) | Gene targeting at the LMNA locus, i53 combined with DNA-PK inhibition ([2]; i53 plus NU7441 (10 μM)) | Change of gene targeting at the LMNA locus (in words) ([2]; parental U2OS cells, NU7441 at 10 μM) | Gene targeting efficiency at the LMNA locus (mClover-positive cells) ([2]; parental U2OS cells, empty vector control 4.79% +/−0.5%) [%]
1 |  |  |  | i53: UbvG08 with C-terminal di-glycine removed and I44A mutation; genetically encoded inhibitor of 53BP1 | induced BRCA1 accumulation at DSB sites in G1 cells | did not impact | did not result in a further increase in gene targeting | nearly as efficient as the 53BP1 knockout | additive increase in gene targeting | nearly two-fold; also recorded: approached that of 53BP1-null cells | 8.58
2 | 4 | 4 | 2 | i53-DM: 53BP1-binding deficient mutant of i53 (P69L, L70V) |  |  |  |  |  |  | 
